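Values below derive from 48-hour exposures of cells grown in 96-well plates, with endpoints linearly interpolated between the two concentrations bracketing the appropriate inhibition level. At the TGI there is no net growth.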
What was measured:
Experiment in all cases: DTP human tumour cell line panel, 48 h
[1] = system: MDA-MB-231 breast
[2] = system: NCI/ADR-RES ovarian
[3] = system: T-47D breast
[4] = system: RPMI-8226 leukemia
[5] = system: MOLT-4 leukemia
[6] = system: NCI-H522 lung
[7] = system: HOP-92 NSCLC
[8] = system: SK-MEL-5 melanoma
[9] = system: UO-31 renal
[10] = system: LOX IMVI melanoma
[11] = system: MALME-3M melanoma
[12] = system: DU-145 prostate
[13] = system: HCT-116 colon
[14] = system: BT-549 breast
[15] = system: UACC-62 melanoma
[16] = system: HOP-62 NSCLC
[17] = system: EKVX NSCLC
[18] = system: M14 melanoma
[19] = system: SW-620 colon
[20] = system: SF-539 CNS
[21] = system: SNB-19 CNS
[22] = system: OVCAR-5 ovarian
[23] = system: IGROV1 ovarian
[24] = system: CCRF-CEM leukemia
[25] = system: U251 CNS
[26] = system: HS 578T breast
[27] = system: OVCAR-8 ovarian
[28] = system: SF-295 CNS
[29] = system: CAKI-1 renal
[30] = system: OVCAR-3 ovarian
[31] = system: COLO 205 colon
[32] = system: SNB-75 CNS
[33] = system: OVCAR-4 ovarian
[34] = system: HCT-15 colon
[35] = system: MDA-MB-435
[36] = system: MDA-N
[37] = system: NCI-H23 lung
[38] = system: SN12C renal
[39] = system: ACHN renal
[40] = system: K-562 leukemia
[41] = system: NCI-H226 lung
[42] = system: HT29 colon
[43] = system: RXF 393 renal
[44] = system: UACC-257 melanoma
[45] = system: SK-MEL-28 melanoma
[46] = system: PC-3 prostate
[47] = system: TK-10 renal
[48] = system: SF-268 CNS
[49] = system: A549 NSCLC
[50] = system: MCF7 breast
[51] = system: NCI-H460 lung
[52] = system: SK-OV-3 ovarian
[53] = system: 786-0 renal
[54] = system: A498 renal
[55] = system: KM12 colon
[56] = system: SK-MEL-2 melanoma

Measured: TGI

CC(NC(=O)OCc1ccccc1)NC(=O)C(CC(=O)OC(C)(C)C)NC(=O)OC(C)(C)C (stereo unspecified)
> 100 µM: all assays above

Reference: PubChem BioAssay (NCI)
